The target in test [1] is T1, CD73 (Homo sapiens (Human), UniProt P21589). The class given is biochemical. The settings on record: 1 mM NaH2PO4 in enzyme buffer, CD73 0.3 nM, AMP 15 uM.
Test [2] concerns the target T1, CD73. The experiment in a line: MDA-MB-231 Cell Based CD73 Activity Assay (DMEM). The settings on record: MDA-MB-231-GFP cells, DMEM medium with 10% human plasma, 200 uM AMP.

T1 sequence (P21589 27-574): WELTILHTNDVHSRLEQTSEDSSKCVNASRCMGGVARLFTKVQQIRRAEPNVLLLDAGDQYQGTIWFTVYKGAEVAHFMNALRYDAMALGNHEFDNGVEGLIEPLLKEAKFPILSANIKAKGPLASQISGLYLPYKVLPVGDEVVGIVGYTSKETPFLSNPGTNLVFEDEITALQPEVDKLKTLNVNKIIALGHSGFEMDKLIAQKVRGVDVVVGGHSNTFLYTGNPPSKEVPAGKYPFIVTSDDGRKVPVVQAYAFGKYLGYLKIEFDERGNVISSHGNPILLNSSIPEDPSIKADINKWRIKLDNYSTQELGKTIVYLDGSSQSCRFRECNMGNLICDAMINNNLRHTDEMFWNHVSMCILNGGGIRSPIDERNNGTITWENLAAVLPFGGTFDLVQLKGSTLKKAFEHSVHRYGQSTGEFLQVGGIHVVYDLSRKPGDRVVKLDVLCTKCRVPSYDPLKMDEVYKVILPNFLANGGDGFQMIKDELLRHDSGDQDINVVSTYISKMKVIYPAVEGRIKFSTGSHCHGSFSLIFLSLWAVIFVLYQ

Turning to `O=C1CCN(c2cc(-c3c[nH]c(=O)[nH]c3=O)nn3ccnc23)N1` [Example 480, 5-(8-(3-oxopyrazolidin-1-yl)imidazo[1,2-b]pyridazin-6-yl)pyrimidine-2,4(1H,3H)-dione], in test [1], the IC50 (commonly the concentration at which inhibition is half-maximal) was over 250 nM. The EC50 (as a rule, the concentration giving half of the maximal effect) in test [2] is 1920 nM.

As to `O=c1[nH]cc(-c2cc([C@H]3C[C@@H]3c3cc4c(cn3)cnn4CC(F)(F)F)c3nccn3n2)c(=O)[nH]1` (racemic) [Example 591, 5-(8-((1S,2S)-2-(1-(2,2,2-trifluoroethyl)-1H-pyrazolo[4,3-c]pyridin-6-yl)cyclopropyl)imidazo[1,2-b]pyridazin-6-yl)pyrimidine-2,4(1H,3H)-dione], inhibition in test [1] was half-maximal at 0.72 nM (IC50). For the same compound, a half-maximal effect in test [2] (EC50) was put at 0.17 nM.

Turning to `O=c1[nH]cc(-c2cc([C@H]3C[C@@H]3c3ccc4nc(C(F)F)n(CC(F)(F)F)c4c3)c3nccn3n2)c(=O)[nH]1` (racemic) [Example 626, 5-(8-((1S,2S)-2-(2-(difluoromethyl)-1-(2,2,2-trifluoroethyl)-1H-benzo[d]imidazol-6-yl)cyclopropyl)imidazo[1,2-b]pyridazin-6-yl)pyrimidine-2,4(1H,3H)-dione], the IC50 in test [1] came out at 5.16 nM. The compound further returned a concentration for a half-maximal effect (EC50) in test [2] of 0.26 nM.

In turn, `N#Cc1ccc([C@H]2C[C@@H]2c2cc(-c3c[nH]c(=O)[nH]c3=O)nn3c(F)cnc23)c(F)c1` [Example 310, 4-((1S,2S)-2-(6-(2,4-dioxo-1,2,3,4-tetrahydropyrimidin-5-yl)-3-fluoroimidazo[1,2-b]pyridazin-8-yl)cyclopropyl)-3-fluorobenzonitrile] had an IC50 in test [1] of 0.63 nM. In test [2], this compound came in with a 50% effective concentration (EC50) of 3.4 nM.

In turn, `COc1ccc(C2CCN(c3cc(-c4c[nH]c(=O)[nH]c4=O)nn4ccnc34)C2)cc1` (stereo not drawn) [Example 173, 5-(8-(3-(4-methoxyphenyl)pyrrolidin-1-yl)imidazo[1,2-b]pyridazin-6-yl)pyrimidine-2,4(1H,3H)-dione] returned a 50% inhibitory concentration (IC50) in test [1] of 3.59 nM. In addition, the EC50 in test [2] was 88.2 nM.

With `O=C1N(CC(F)(F)F)c2cc([C@H]3C[C@@H]3c3cc(-c4c[nH]c(=O)[nH]c4=O)nn4c(F)cnc34)ccc2C12CCC2` [Example 386, 5-(3-fluoro-8-((1S,2S)-2-(2′-oxo-1′-(2,2,2-trifluoroethyl)spiro[cyclobutane-1,3′-indolin]-6′-yl)cyclopropyl)imidazo[1,2-b]pyridazin-6-yl)pyrimidine-2,4(1H,3H)-dione], in test [1], the IC50 was found to be 0.92 nM. In addition, in test [2], the EC50 was determined as 0.28 nM.

In the case of `CC1(C)C(=O)N(CC(F)(F)F)c2cc([C@H]3C[C@@H]3c3cc(-c4c[nH]c(=O)[nH]c4=O)nn4c(Cl)cnc34)ccc21` [Example 722, 5-[3-chloro-8-[(1S,2S)-2-[3,3-dimethyl-2-oxo-1-(2,2,2-trifluoroethyl)indolin-6-yl]cyclopropyl]imidazo[1,2-b]pyridazin-6-yl]-1H-pyrimidine-2,4-dione], in test [1], the IC50 worked out at 1.1 nM. The same compound registered an EC50 in test [2] of 0.58 nM.

On to `O=c1[nH]cc(-c2cc([C@H]3C[C@@H]3c3ccc(F)cc3F)c3nc(C4CC4)cn3n2)c(=O)[nH]1` [Example 146, 5-(2-cyclopropyl-8-((1S,2S)-2-(2,4-difluorophenyl)cyclopropyl)imidazo[1,2-b]pyridazin-6-yl)pyrimidine-2,4(1H,3H)-dione], for which, in test [1], inhibition was half-maximal at 6.12 nM (IC50). For the same compound, a half-maximal response in test [2] (EC50) required 46.7 nM.

The compound `O=c1[nH]cc(-c2cc(N3CC(Cc4ccc(F)cc4F)C3)c3nccn3n2)c(=O)[nH]1` [Example 450, 5-(8-(3-(2,4-difluorobenzyl)azetidin-1-yl)imidazo[1,2-b]pyridazin-6-yl)pyrimidine-2,4(1H,3H)-dione] displayed an IC50 in test [1] of 230 nM. In test [2], the concentration for a half-maximal effect (EC50) came out at 250 nM.

For `O=c1[nH]cc(-c2cc(N3CC[C@@H](C(F)(F)F)C3)c3nccn3n2)c(=O)[nH]1` [Example 175, (R)-5-(8-(3-(trifluoromethyl)pyrrolidin-1-yl)imidazo[1,2-b]pyridazin-6-yl)pyrimidine-2,4(1H,3H)-dione], it took 3.6 nM to reach half-maximal inhibition in test [1] (IC50). In test [2], this compound displayed an EC50 of 23.1 nM.

Compound `C[C@@H]1CN(c2cc(-c3c[nH]c(=O)[nH]c3=O)nn3ccnc23)CC1(F)F` [Example 517, (R)-5-(8-(3,3-difluoro-4-methylpyrrolidin-1-yl)imidazo[1,2-b]pyridazin-6-yl)pyrimidine-2,4(1H,3H)-dione] displayed a half-inhibitory concentration (IC50) in test [1] of 5.23 nM. Further, the EC50 in test [2] was 21.4 nM.

The compound `O=c1[nH]cc(-c2cc(N3CC(C(F)F)C3)c3nccn3n2)c(=O)[nH]1` [Example 403, 5-(8-(3-(difluoromethyl)azetidin-1-yl)imidazo[1,2-b]pyridazin-6-yl)pyrimidine-2,4(1H,3H)-dione] came in with a half-maximal inhibitory concentration (IC50) in test [1] of 8.94 nM. In test [2], this compound registered a concentration giving a half-maximal response (EC50) of 28.5 nM.

In turn, `O=c1[nH]cc(-c2cc([C@H]3C[C@@H]3c3cc4c(cn3)c(F)cn4CC(F)(F)F)c3nccn3n2)c(=O)[nH]1` [Example 392, 5-(8-((1S,2S)-2-(3-fluoro-1-(2,2,2-trifluoroethyl)-1H-pyrrolo[3,2-c]pyridin-6-yl)cyclopropyl)imidazo[1,2-b]pyridazin-6-yl)pyrimidine-2,4(1H,3H)-dione] displayed a half-inhibitory concentration (IC50) in test [1] of 1.25 nM. The EC50 in test [2] was 0.34 nM.

`O=c1[nH]cc(-c2cc([C@@H]3C[C@H]3c3ccc(Cl)cc3)c3nccn3n2)c(=O)[nH]1` [Example 634, 5-(8-((1R,2R)-2-(4-chlorophenyl)cyclopropyl)imidazo[1,2-b]pyridazin-6-yl)pyrimidine-2,4(1H,3H)-dione]: the IC50 in test [1] was 5.19 nM. The compound further came in with a concentration for a half-maximal effect (EC50) in test [2] of 39 nM.

In test [1], `CC1(C)C(=O)N(CC(F)(F)F)c2cc([C@H]3C[C@@H]3c3cc(-c4c[nH]c(=O)[nH]c4=O)nn4ccnc34)cnc21` [Example 698, 5-(8-((1S,2S)-2-(3,3-dimethyl-2-oxo-1-(2,2,2-trifluoroethyl)-2,3-dihydro-1H-pyrrolo[3,2-b]pyridin-6-yl)cyclopropyl)imidazo[1,2-b]pyridazin-6-yl)pyrimidine-2,4(1H,3H)-dione] came in with an IC50 of 3.84 nM. For the same compound, it took 0.81 nM to reach a half-maximal effect in test [2] (EC50).

As for `O=c1[nH]cc(-c2cc([C@H]3C[C@@H]3c3ccc(Cl)cn3)c3ncnn3n2)c(=O)[nH]1` [Example 439, 5-(8-((1S,2S)-2-(5-chloropyridin-2-yl)cyclopropyl)-[1,2,4]triazolo[1,5-b]pyridazin-6-yl)pyrimidine-2,4(1H,3H)-dione], the IC50 in test [1] was 0.77 nM. In test [2], this compound came in with a concentration for a half-maximal effect (EC50) of 2.63 nM.

Consider `O=C(NCC(F)(F)F)OCC1(F)CN(c2cc(-c3c[nH]c(=O)[nH]c3=O)nn3ccnc23)C1` [Example 437, (1-(6-(2,4-dioxo-1,2,3,4-tetrahydropyrimidin-5-yl)imidazo[1,2-b]pyridazin-8-yl)-3-fluoroazetidin-3-yl)methyl (2,2,2-trifluoroethyl)carbamate], for which the IC50 in test [1] came to 12.8 nM. Further, the midpoint of the response in test [2], the EC50, lay at 43.6 nM.

Compound `N#Cc1cc(F)c([C@H]2C[C@@H]2c2cc(-c3c[nH]c(=O)[nH]c3=O)nn3c(F)cnc23)c(F)c1` [Example 425, 4-((1S,2S)-2-(6-(2,4-dioxo-1,2,3,4-tetrahydropyrimidin-5-yl)-3-fluoroimidazo[1,2-b]pyridazin-8-yl)cyclopropyl)-3,5-difluorobenzonitrile] displayed a concentration for half-maximal inhibition (IC50) in test [1] of 1.63 nM. Besides, the response in test [2] was half-maximal at 5.63 nM (EC50).

For the origin of these results see US20240043427A1 (Gilead Sciences, Inc., priority 2020, published 2024).
